Measurements: patent publication US20070122903A1, “AMNIOTIC FLUID DERIVED CELLS” (priority 2005, published 2007)

Experiments:
Type in all cases: cell-based, human
[1] = test system: cell line AFCA004 (E morphology); test: Treatment with PANC-1 conditioned medium in combination with growth factors, real-time PCR; details: PANC-1 conditioned medium plus growth factor; for somatostatin expression: after 14 days treatment
Description: Amniotic fluid-derived cells were obtained from a single donor and cultured for 12 days in conditioned media that was obtained from cultures of PANC-1 cells. The media was supplemented with the growth factors indicated. The levels of expression of HNF-3 beta and somatostatin were determined by real-time PCR. Human pancreas total RNA was included as a calibrator.
Cells from the cell line AFCA004 (E morphology) at passage 6 were seeded at 5×10^5 cells per well of 6-well culture plates and treated with conditioned medium from confluent PANC-1 cells (ATCC, VA) in combination with different growth factors. Basic FGF, EGF and combination of bFGF and EGF enhanced the expression of HNF-3 beta ˜100 fold over untreated cells. Basic FGF, EGF and BMPs also stimulated somatostatin expression after 14 days treatment (FIG. 16, panels a&b).

[2] = test system: cell line AFCA007 Clone A (AF-I); test: Differentiation of cells into multiple endocrine lineages (collagen type I/matrigel transwell culture with growth factors); details: 14 days, DMEM + 5% FBS
Description: Cells from the cell line AFCA007 Clone A (AF-I) at passage 8 were embedded in collagen type I (Becton Dickinson, CA) with 1% growth-factor reduced matrigel matrix (Becton Dickinson), and seeded into 6-well transwell insert at 5×10^5 cells per well. The bottom well was seeded with human aortic endothelial cells passage 6 (Cambrex. MD). Cells were cultured with DMEM medium supplemented with 5% FBS and growth factors, which includes Cyclopamine, bFGF, EGF, BMP4-7, Activin A, Exendin 4, FGF4, all-trans retinoic acid and γ-secretase inhibitors for 14 days. Cultures were fed every other day. […] Treatment of cells with BMPs at high concentration, 50 ng/ml, also up-regualted the GATA4 expression.

[3] = test system: Hes-1 expression (Notch pathway) in cell line AFCA007 (AF-I); test: Hes-1 expression by real-time PCR after notch pathway inhibition; details: range of concentrations, 3 to 5 days
Description: (§1) Cells were treated for three days, at the concentrations indicated. Changes in viability, corresponding to cytotoxicity were detected using an MTS assay, where a decrease in cell viability corresponds to a decrease in A490 nm.
(§2) Cells from the cell line AFCA007 (AF-I) at passage 8 were treated with a range of concentrations of the notch pathway inhibitor L-685,458 (Sigma, MO) for 3 to 5 days. The cytotoxcity of L-685,458 was determined by measuring cell viability by a MTS assay (Promega, WI). Real-time PCR analysis was performed to analyze Hes-1 expression after the treatment. […] No effect on cell viability, as determined by the MTS assay, was observed following L-685,458 treatment of up to 10 μM for 5 days (FIG. 17, panel b).

cell line AFCA007 (AF-I) = test: Cytotoxicity by MTS cell viability assay; details: up to 10 μM for 5 days
Description: as §1, §2

Row | Compound | expression of HNF-3 beta over untreated cells [1] | somatostatin expression [1] | other results
1 | Basic FGF: growth factor combined with PANC-1 conditioned medium | ~100 fold | stimulated | –
2 | EGF: epidermal growth factor combined with PANC-1 conditioned medium (NSDSECPLSHDGYCLHDGVCMYIEALDKYACNCVVGYIGERCQYRDLKWWELR; Epidermal growth factor; UniProt P01133 971-1023, looked up) | ~100 fold | stimulated | –
3 | CC1=C(/C=C/C(C)=C/C=C/C(C)=C/C(=O)O)C(C)(C)CCC1 [all-trans retinoic acid, reference compound] | – | – | alpha-fetoprotein (AFP) expression [2]: up-regulation
4 | CC(C)C[C@H](NC(=O)[C@H](Cc1ccccc1)C[C@@H](O)[C@H](Cc1ccccc1)NC(=O)OC(C)(C)C)C(=O)N[C@@H](Cc1ccccc1)C(N)=O [L-685,458] | – | – | expression of HNF-3 beta [2]: up-regulated; Hes-1 expression [3]: dose-dependent inhibitory effect; cell viability (MTS assay) (cell line AFCA007 (AF-I)): No effect
